In ChEMBL document CHEMBL5042473 (J Med Chem, 2022):

What was measured:
CYP2C9 = CYP2C9 (Homo sapiens, UniProt P11712); experiment: Inhibition of human recombinant CYP2C9 at 10 uM relative to control; assay type: ADME
Splenocyte [1] = experiment: Antiinflammatory activity against LPS-stimulated Balb/c mouse splenocytes assessed as reduction in IL-6 at 1 nM incubated for 24 hrs by ELISA based method; assay type: functional; design: scale not given: the % may be the effect or the level left
Splenocyte [2] = experiment: Antiinflammatory activity against LPS-stimulated Balb/c mouse splenocytes assessed as reduction in IL-6 at 100 nM incubated for 24 hrs by ELISA based method; assay type: functional; design: scale not given: the % may be the effect or the level left
[3] = Cytotoxicity against Balb/c mouse splenocytes assessed as metabolic activity at 100 nM incubated for 24 hrs by MTT assay relative to LPS-stimulated splenocytes; assay type: toxicity, cell-based, Splenocyte; conditions: read-out: Activity
[4] = Drug concentration in mouse C57BL/6 brain at 0.4 mg/kg,po measured at 2 hrs by LC-MS/MS analysis; assay type: ADME, organism-based; conditions: C57BL/6, mouse, read-out: Drug uptake
Splenocyte [5] = experiment: Cytotoxicity against Balb/c mouse splenocytes assessed as metabolic activity at 1 to 10 nM incubated for 24 hrs by MTT assay; assay type: toxicity, cell-based; conditions: 0.01 µM, dose 1-10 nM
CYP2D6 = CYP2D6 (Homo sapiens, UniProt P10635); experiment: Inhibition of human recombinant CYP2D6 at 10 uM relative to control; assay type: ADME
[6] = Drug concentration in mouse C57BL/6 heart at 0.4 mg/kg,po measured at 4 hrs by LC-MS/MS analysis; assay type: ADME, organism-based; conditions: C57BL/6, mouse, read-out: Drug uptake
Blood [7] = experiment: Antiinflammatory activity against LPS-stimulated C57BL/6 mouse whole blood assessed as reduction in TNF-alpha at 1 nM incubated for 24 hrs by ELISA based method; assay type: functional; design: scale not given: the % may be the effect or the level left
hERG = hERG (Homo sapiens, UniProt Q12809); experiment: Inhibition of hERG at 10 uM by fluorimetric analysis relative to control; assay type: toxicity
[8] = Ratio of drug concentration in mouse C57BL/6 brain to plasma at 0.4 mg/kg, po measured at 2 hrs by LC-MS/MS analysis; assay type: ADME, organism-based; conditions: C57BL/6, mouse, brain and plasma
CYP1A2 = biological target: T1, CYP1A2 (Homo sapiens, UniProt P05177); experiment: Inhibition of human recombinant CYP1A2 at 10 uM relative to control; assay type: ADME
T1 sequence (P05177 whole entry): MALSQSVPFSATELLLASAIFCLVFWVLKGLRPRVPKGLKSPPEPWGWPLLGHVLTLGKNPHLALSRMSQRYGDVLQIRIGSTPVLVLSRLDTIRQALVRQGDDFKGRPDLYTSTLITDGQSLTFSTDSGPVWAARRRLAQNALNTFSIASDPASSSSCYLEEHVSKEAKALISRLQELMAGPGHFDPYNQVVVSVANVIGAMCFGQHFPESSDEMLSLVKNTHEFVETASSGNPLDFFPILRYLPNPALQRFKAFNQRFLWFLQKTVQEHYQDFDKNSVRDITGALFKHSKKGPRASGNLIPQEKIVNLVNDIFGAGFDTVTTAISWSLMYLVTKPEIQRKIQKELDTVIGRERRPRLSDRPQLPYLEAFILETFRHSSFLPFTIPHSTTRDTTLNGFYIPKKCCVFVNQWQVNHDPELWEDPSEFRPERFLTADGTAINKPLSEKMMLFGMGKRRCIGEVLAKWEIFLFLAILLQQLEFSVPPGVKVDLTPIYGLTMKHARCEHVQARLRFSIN

[9] = Metabolic stability in human liver microsomes assessed as parent compound remaining incubated for 120 mins; assay type: ADME, Microsome; conditions: read-out: Stability
[10] = Drug concentration in mouse C57BL/6 brain at 0.4 mg/kg,po measured at 4 hrs by LC-MS/MS analysis; assay type: ADME, organism-based; conditions: C57BL/6, mouse, read-out: Drug uptake
[11] = Drug concentration in mouse C57BL/6 liver at 0.4 mg/kg,po measured at 4 hrs by LC-MS/MS analysis; assay type: ADME, organism-based; conditions: C57BL/6, mouse, read-out: Drug uptake
CYP3A4 = CYP3A4 (Homo sapiens, UniProt P08684); experiment: Inhibition of human recombinant CYP3A4 at 10 uM relative to control; assay type: ADME
[12] = Drug concentration in mouse C57BL/6 kidney at 0.4 mg/kg,po measured at 4 hrs by LC-MS/MS analysis; assay type: ADME, organism-based; conditions: C57BL/6, mouse, read-out: Drug uptake
CYP2C19 = CYP2C19 (Homo sapiens, UniProt P33261); experiment: Inhibition of human recombinant CYP2C19 at 10 uM relative to control; assay type: ADME
[13] = biological target: Mitogen-activated protein kinase 14 (Homo sapiens, UniProt Q16539); experiment: Inhibition of human p38 MAPK alpha incubated for 1 hr by photometric method
Splenocyte [14] = experiment: Antiinflammatory activity against LPS-stimulated Balb/c mouse splenocytes assessed as reduction in IL-6 at 10 nM incubated for 24 hrs by ELISA based method; assay type: functional; design: scale not given: the % may be the effect or the level left
[15] = Ratio of drug concentration in RjOrl:Swiss (CD-1) mouse brain to plasma at 10mg/kg, iv administered measured after 2 hrs by LC-MS/MS analysis; assay type: ADME, organism-based; conditions: brain and plasma, read-out: BPR
[16] = Drug uptake in RjOrl:Swiss (CD-1) mouse brain at 10 mg/kg, iv administered measured after 2 hrs by LC-MS/MS analysis; assay type: ADME, organism-based; conditions: read-out: Ct
Blood [17] = experiment: Antiinflammatory activity against LPS-stimulated C57BL/6 mouse whole blood assessed as reduction in IL-6 incubated for 24 hrs by ELISA based method; assay type: functional; design: scale not given: the % may be the effect or the level left; conditions: dose 1-100 nM, at 1 to 100 nM
Blood [18] = experiment: Antiinflammatory activity against LPS-stimulated C57BL/6 mouse whole blood assessed as reduction in TNF-alpha at 10 nM incubated for 24 hrs by ELISA based method; assay type: functional; conditions: C57BL/6, Blood
Blood [19] = experiment: Reduction in LPS-stimulated TNF-alpha release in human whole blood incubated for 15 mins by ELISA based method; conditions: 0.25 h
[20] = Drug concentration in mouse C57BL/6 brain at 0.4 mg/kg,iv measured at 2 hrs by LC-MS/MS analysis; assay type: ADME, organism-based; conditions: C57BL/6, mouse, read-out: Drug uptake
[21] = Drug uptake in mouse C57BL/6 brain at 0.4 mg/kg,iv measured upto 240 mins by LC-MS/MS analysis; assay type: ADME, organism-based; conditions: in vivo, 4 h
[22] = Drug uptake in mouse C57BL/6 brain at 0.4 mg/kg,po measured upto 240 mins by LC-MS/MS analysis; assay type: ADME, organism-based; conditions: in vivo, 4 h
[23] = Drug concentration in rat brain at 6 mg/kg, iv measured after 24 hrs by LC/MS/MS analysis; conditions: in vivo
[24] = Drug concentration in rat plasma at 6 mg/kg, iv measured after 24 hrs by LC/MS/MS analysis
[25] = Drug concentration in rat plasma at 1.5 mg/kg, po measured after 1 hrs by LC/MS/MS analysis; assay type: ADME, organism-based
[26] = Drug concentration in rat plasma at 4.5 mg/kg, po measured after 1 hrs by LC/MS/MS analysis; assay type: ADME, organism-based
[27] = Drug concentration in rat brain at 1.5 mg/kg, po measured after 1 hrs by LC/MS/MS analysis; assay type: ADME, organism-based; conditions: in vivo
[28] = Ratio of drug concentration in rat brain to plasma; conditions: brain and plasma
[29] = Drug concentration in rat brain at 4.5 mg/kg, po measured after 1 hrs by LC/MS/MS analysis; assay type: ADME, organism-based; conditions: in vivo

Sequence of Mitogen-activated protein kinase 14 (Q16539 whole entry): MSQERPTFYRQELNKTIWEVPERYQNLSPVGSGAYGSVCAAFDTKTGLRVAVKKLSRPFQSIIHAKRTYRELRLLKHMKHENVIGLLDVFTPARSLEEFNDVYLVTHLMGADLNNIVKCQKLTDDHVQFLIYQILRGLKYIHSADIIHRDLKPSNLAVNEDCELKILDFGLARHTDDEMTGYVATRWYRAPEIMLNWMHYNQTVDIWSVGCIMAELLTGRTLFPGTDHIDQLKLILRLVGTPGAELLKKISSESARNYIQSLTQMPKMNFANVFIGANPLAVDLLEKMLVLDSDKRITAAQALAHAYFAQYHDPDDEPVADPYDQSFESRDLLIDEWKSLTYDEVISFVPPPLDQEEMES
Sequence of hERG (Q12809 whole entry): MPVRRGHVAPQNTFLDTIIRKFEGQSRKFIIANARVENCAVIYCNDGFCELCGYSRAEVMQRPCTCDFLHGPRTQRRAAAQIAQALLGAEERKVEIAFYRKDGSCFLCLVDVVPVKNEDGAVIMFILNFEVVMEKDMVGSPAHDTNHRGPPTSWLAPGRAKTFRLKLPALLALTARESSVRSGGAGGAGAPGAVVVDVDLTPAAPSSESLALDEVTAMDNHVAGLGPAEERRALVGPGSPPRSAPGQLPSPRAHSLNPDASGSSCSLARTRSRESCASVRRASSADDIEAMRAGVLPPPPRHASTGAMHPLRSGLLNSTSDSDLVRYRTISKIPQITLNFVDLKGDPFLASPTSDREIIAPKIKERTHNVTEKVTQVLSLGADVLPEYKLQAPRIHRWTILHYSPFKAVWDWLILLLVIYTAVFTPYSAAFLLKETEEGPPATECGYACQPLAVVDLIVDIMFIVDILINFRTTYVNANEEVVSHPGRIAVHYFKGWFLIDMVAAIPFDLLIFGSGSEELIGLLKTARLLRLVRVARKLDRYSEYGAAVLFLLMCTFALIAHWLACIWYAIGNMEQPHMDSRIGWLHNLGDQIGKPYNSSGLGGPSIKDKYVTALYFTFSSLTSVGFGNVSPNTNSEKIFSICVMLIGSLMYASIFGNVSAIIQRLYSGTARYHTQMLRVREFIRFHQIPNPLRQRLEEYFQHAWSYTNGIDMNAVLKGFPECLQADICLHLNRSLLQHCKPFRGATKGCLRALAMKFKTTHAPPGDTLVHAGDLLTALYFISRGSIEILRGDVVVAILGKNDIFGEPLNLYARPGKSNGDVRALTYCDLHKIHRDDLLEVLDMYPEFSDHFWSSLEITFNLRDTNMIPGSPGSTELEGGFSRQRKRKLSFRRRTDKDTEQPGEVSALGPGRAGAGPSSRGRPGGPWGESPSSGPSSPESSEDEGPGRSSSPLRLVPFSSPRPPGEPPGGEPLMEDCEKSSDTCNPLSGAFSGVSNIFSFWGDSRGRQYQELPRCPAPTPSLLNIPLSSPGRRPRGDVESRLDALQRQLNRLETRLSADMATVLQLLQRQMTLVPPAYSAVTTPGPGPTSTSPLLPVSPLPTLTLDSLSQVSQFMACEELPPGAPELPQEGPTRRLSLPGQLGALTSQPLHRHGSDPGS
Sequence of CYP3A4 (P08684 whole entry): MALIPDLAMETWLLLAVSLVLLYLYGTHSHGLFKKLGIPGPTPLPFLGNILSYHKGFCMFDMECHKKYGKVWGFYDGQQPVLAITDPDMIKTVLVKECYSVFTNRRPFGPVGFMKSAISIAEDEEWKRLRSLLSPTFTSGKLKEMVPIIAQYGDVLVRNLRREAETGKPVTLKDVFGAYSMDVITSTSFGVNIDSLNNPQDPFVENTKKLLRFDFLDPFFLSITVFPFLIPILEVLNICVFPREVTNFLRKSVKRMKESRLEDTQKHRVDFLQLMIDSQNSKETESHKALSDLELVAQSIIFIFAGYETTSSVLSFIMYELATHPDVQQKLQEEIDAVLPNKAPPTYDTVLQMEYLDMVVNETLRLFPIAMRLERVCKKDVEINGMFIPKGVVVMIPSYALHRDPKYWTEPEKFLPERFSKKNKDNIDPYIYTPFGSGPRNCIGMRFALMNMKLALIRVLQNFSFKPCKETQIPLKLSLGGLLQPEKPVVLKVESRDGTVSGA
Sequence of CYP2D6 (P10635 whole entry): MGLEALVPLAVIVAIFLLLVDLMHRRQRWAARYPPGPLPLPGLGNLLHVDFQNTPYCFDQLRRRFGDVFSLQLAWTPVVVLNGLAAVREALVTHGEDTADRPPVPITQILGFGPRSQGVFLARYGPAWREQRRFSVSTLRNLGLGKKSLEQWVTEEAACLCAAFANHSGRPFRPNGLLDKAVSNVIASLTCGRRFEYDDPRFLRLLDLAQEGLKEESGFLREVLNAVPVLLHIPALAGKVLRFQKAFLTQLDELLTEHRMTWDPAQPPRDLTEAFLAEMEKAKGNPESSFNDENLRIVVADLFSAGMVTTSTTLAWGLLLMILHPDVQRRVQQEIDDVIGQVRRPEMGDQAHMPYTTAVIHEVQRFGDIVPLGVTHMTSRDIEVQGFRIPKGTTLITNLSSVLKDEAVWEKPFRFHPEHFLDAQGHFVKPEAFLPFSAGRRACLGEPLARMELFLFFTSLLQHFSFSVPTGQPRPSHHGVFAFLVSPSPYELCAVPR
Sequence of CYP2C9 (P11712 whole entry): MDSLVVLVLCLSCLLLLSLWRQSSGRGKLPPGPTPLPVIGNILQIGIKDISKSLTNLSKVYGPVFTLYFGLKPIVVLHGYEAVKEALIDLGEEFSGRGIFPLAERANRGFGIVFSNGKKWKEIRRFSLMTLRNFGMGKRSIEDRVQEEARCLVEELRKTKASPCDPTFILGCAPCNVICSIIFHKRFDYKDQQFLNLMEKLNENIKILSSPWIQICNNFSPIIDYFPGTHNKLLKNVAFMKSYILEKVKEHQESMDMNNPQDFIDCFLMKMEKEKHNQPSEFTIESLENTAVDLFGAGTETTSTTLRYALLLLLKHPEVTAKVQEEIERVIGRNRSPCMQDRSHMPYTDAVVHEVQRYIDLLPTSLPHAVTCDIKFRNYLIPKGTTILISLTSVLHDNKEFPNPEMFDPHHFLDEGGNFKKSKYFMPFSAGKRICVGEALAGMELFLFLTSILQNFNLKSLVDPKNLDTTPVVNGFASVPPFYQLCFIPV
Sequence of CYP2C19 (P33261 whole entry): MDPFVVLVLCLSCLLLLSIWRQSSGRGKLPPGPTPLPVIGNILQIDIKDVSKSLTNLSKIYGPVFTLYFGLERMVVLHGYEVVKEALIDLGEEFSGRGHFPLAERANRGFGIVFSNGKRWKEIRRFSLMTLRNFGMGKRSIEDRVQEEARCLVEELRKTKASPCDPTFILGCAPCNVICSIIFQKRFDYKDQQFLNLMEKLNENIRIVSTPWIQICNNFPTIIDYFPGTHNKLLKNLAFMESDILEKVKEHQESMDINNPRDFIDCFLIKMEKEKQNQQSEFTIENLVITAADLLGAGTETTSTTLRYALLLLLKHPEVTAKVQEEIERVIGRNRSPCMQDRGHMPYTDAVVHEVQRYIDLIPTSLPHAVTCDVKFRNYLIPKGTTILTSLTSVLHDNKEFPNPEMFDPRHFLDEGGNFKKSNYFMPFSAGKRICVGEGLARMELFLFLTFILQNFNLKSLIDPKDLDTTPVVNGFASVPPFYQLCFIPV

Compound	inhibition at 10 µM (CYP2C9) [%]	viability at 24 h, 0.1 µM [3] [%]	Activity (Splenocyte [5])	inhibition at 10 µM (CYP2D6) [%]	inhibition at 10 µM (hERG) [%]	inhibition at 10 µM (CYP1A2) [%]	remaining at 2 h [9] [%]	inhibition at 10 µM (CYP3A4) [%]	inhibition at 10 µM (CYP2C19) [%]	IC50 [13] [nM]	Activity (Blood [17]) [%]	inhibition at 0.01 µM (Blood [18]) [%]	other results
Nc1ccccc1Nc1ccc2c(c1)CCc1ccc(C(=O)NCCC(=O)O)cc1C2=O	13.1	66	Non-Toxic	11.4	22.5	28.1	99	4.1	21.8	0.98	–	–	Activity (Splenocyte [1]): 138%; Activity (Splenocyte [2]): 29%; concentration at 2 h [4]: 590 nM; concentration at 4 h [6]: 120 nM; Activity (Blood [7]): 5%; Kp at 2 h [8]: 4.7; concentration at 4 h [10]: 540 nM; concentration at 4 h [11]: 330 nM; concentration at 4 h [12]: 380 nM; Activity (Splenocyte [14]): 118%
O=C(O)CCNC(=O)c1ccc2c(c1)C(=O)c1ccc(Nc3ccc(F)cc3F)cc1CC2	98.5	66	Non-Toxic	3	11.8	33.6	97	54.8	100	5.5	–	–	Activity (Blood [7]): 5%; Kp at 2 h [15]: 1.25; concentration at 2 h [16]: 103 ng/g
COC(=O)CCNC(=O)c1ccc2c(c1)C(=O)c1ccc(Nc3ccc(F)cc3F)cc1CC2	99.4	66	Non-Toxic	73.7	59.9	27.3	0	68	100	1.2	85	50	–
O=C(NCCN1CC2(COC2)C1)c1ccc2c(c1)C(=O)c1ccc(Nc3ccc(F)cc3F)cc1CC2	88.7	–	–	18.3	76.6	0	47	83.6	93.6	5.9	–	–	Kp at 2 h [15]: 0.16; concentration at 2 h [16]: 68 ng/g
O=C(O)CCCNC(=O)c1ccc2c(c1)C(=O)c1ccc(Nc3ccc(F)cc3F)cc1CC2	66	66	Non-Toxic	2	14.4	16.2	99	38.1	63.2	12	71	50	Kp at 2 h [15]: 4.38; concentration at 2 h [16]: 98.2 ng/g
COC(=O)CCCNC(=O)c1ccc2c(c1)C(=O)c1ccc(Nc3ccc(F)cc3F)cc1CC2	68.4	66	Non-Toxic	3	49.7	11.6	–	34.9	60.4	3.4	64	50	IC50 (Blood [19]): 64 nM
COC(=O)CCNC(=O)c1ccc2c(c1)C(=O)c1ccc(Nc3ccccc3N)cc1CC2	–	66	Non-Toxic	–	–	–	–	–	–	29	81	50	–
CNC(=O)c1ccc2c(c1)C(=O)c1ccc(Nc3ccccc3N)cc1CC2	–	66	Non-Toxic	–	–	–	3	–	–	5.7	–	–	concentration at 2 h [4]: 20 nM; concentration at 2 h [20]: 20 nM
O=C(Nc1ccccc1)c1ccc2c(c1)C(=O)c1ccc(Nc3ccc(F)cc3F)cc1CC2	–	66	Non-Toxic	–	–	–	–	–	–	2.4	–	–	Activity (Splenocyte [2]): 51%; Drug uptake [21]: Not Active; Activity (Blood [7]): 5%; Drug uptake [22]: Not Active
CN1CCN(c2cc(-c3ccncc3)c(-c3ccc4ccccc4c3)nn2)CC1 [MW-150]	–	–	–	–	–	–	–	–	–	–	–	–	Ct [23]: 1030 nmol/kg; concentration at 24 h [24]: 390 ng/mL
O=c1ncn2nc(Sc3ccc(F)cc3F)ccc2c1-c1c(Cl)cccc1Cl [NEFLAMAPIMOD]	–	–	–	–	–	–	–	–	–	–	–	–	concentration at 1 h [25]: 33 ng/mL; concentration at 1 h [26]: 92 ng/mL; Ct [27]: 129 nmol/kg; Kp [28]: 1.7; Ct [29]: 359 nmol/kg
